From US7074925B1, “N-substituted derivatives of 5-oxyiminobarbituric acid” (priority 1998, dated 2006)
Values after ≈ are worked out from the molar mass of the structure shown.

Tests used:
[1] = system: cholesterol synthesis by human's fibroblasts; test: Inhibition of cholesterol synthesis in human's fibroblasts; type: cell-based; details: Homo sapiens, Fibroblast; 400 ng/ml, [2-14C] acetate incorporation, 4 hours
Protocol: Influence of the substance (400 ng/ml) on cholesterol synthesis by human's fibroblasts was investigated. […] The spots corresponding to cholesterol were removed from a plate to a vial and then were coated with scintillation liquid; after that radioactivity was measured expressed as pulse/min/mg of cell protein. Lovastatin taken in the same concentration as the tested substance was utilized as a reference agent.

[2] = Antiulcerous action, water immersion stress with immobilization; type: in vivo, rats; details: 20 mg/kg perorally
Protocol: Antiulcerous activity of substances was tested on a model of experimental water immersion stress with immobilization. […] After that, gastric mucous membrane was investigated, number and sizes of ulcers were counted, ulceration index was determined (an average sum of ulcer lengths per one animal in a group).

C.trachomatis D323 = test: Action on Chlamydia trachomatis in cell culture; type: cell-based; details: 100 mg/l
Protocol: The antimicrobial activity of the claimed compounds was studied relative to C.trachomatis […], which is a standard strain from the collection of the chair of microbiology of St. Petersburg State Pavlov Medical University. […] Cell cultures McCoy and L929 obtained from the Institute of Cytology of RAS were used in this work. Cells were grown in flasks made of neutral glass in the medium RPMI-1640 with the addition of 10% of fetal calf serum. The test was performed in glass (non-toxic) flat-bottom flasks with cover glasses. The cells were introduced into the medium in the final concentration of […]. […] Simultaneously, tested compounds in a final concentration of 100 mg/l were added to the cells. The sample was centrifuged at 2400 G during 60 minutes at room temperature and incubated at 37° C. for 2 hours. […] The samples were doubled using the medium without cycloheximide so as to exclude its effect on the investigated compounds. The samples were incubated in a CO2-incubator for 48 hours. […] The effect of the action of substance was determined by analysis of the monolayer state and number of cells with CPI when compared with the control (cell culture infected with C.trachomatis […]); in doing so, the number of unchanged cells, that were counted in 100 visual fields obtained using the special net of the microscope eyepiece, was taken into consideration. […] Control of cell culture: morphology of cells and state of monolayer correspond to the given type of the cells; control of chlamydia growth in the cell culture: presence of CPI in the monolayer; control of action of standard antimicrobial agent: reduction of number of CPI in the monolayer as compared to the previous control; control of toxicity of the claimed compounds: toxicity is absent; control of action of solvents: toxic action on cells is absent.

[3] = Antioxidant action, riboflavine chemiluminescence; type: biochemical; details: solvent water, phosphate buffer pH 9.1
Excerpt: To assess a general antioxidant activity the method of riboflavine chemiluminescence was used. The test substance was introduced into a system consisted of phosphate buffer (pH 9.1), solution of riboflavine, and solution of bivalent iron sulfate. Chemiluminescence was initiated by 0.1% solution of hydrogen peroxide and registered by means of luminometer. […] Ascorbic acid was used as a reference agent.

[4] = Psychodepressive activity, behavioral score; type: in vivo, mice; details: per oral 300 mg/kg, one hour after dosing; total 60, less than 40 significant
Protocol: Each parameter scores 2 points for an each mouse that had unchanged behavior. The total point sum was 60 (2×10×3 mice). Reducing score to less than 40 one hour after dosing with a substance per oral (300 mg/kg) denoted significant behavioral depression. Haloperidol was utilized as a reference agent.

[5] = Hepatoprotective activity, CCl4 liver damage (AlAT); type: in vivo, rats
Protocol: CCl4 dissolved in 50% olive oil (1 ml/kg) was subcutaneously administrated to rats. Test substances were administrated perorally in a dose of 20 mg/kg 30 minutes before and 7 hours after the CCL4 administration. The activity of alanine-aminotranspherase (AlAT), which is a marker enzyme of liver parenchyma damage, was assessed twenty-four hours later. Reducing of enzyme amount by more than 30% relative to the control group was considered as evidence of hepatoprotective properties of the substance.
Silymarin in a dose of 100 mg/kg was used as a reference agent.

[6] = system: Herpes virus of the type I (HSV-I/Leningrad/248/88); test: Effect on Herpes virus, cytopathogenic action on Vero cells; type: cell-based, Herpes Simplex virus; details: compound 100 μg/ml
Protocol: An antiviral activity was determined with respect to Herpes virus of the type I (HSV-I/Leningrad/248/88) by means of commonly accepted method. Viruses were grown on a continuous culture of Vero cells that have been received from the Bank of Cell Cultures of the Institute of Cytology of the Russian Academy of Science.
A virus in a final concentration of […] and the claimed compounds dissolved in DMSO in final concentrations of 100, 10 and 1 mg/l were added to cells that were grown on the RPMI-1640 medium with 10% fetal calf serum and placed into wells of the 96-well plate. 5 separate wells were used for each of tested concentrations of an agent. The plate was incubated during 60 minutes at 38° C. in a CO2-incubator. After the incubation, the virus was removed and then a fresh medium containing claimed compounds in used concentrations was again introduced.
Results were evaluated basing on presence of cytopathogenic action on the cells after 36 hours of incubation at 38° C. in the CO2-incubator.
The next controls were used in the experiment: • 1. Control of cell culture (capability to grow properly) • 2. Control of the virus (evaluation of capability for reproduction) • 3. Control of an antiviral activity of an antiviral drug Acyclovir • 4. Control of compounds (toxicity of compounds) • 5. Control of a solvent (DMSO) for toxicity.
To estimate a cytopathic action of the virus, a quantity of the unchanged cells was calculated in 100 visual fields formed by a special net of an eyepiece of the inverted microscope.

[7] = system: Human's platelet aggregation; test: Antiaggregational properties, ADP-induced platelet aggregation; type: cell-based; details: 100 μg/ml, ADP […], platelet-enriched human plasma
Excerpt: Human's platelet aggregation was investigated in plasma of healthy 50±3 years donors that was enriched by thrombocytes, by means of aggregometer FRM-1. […] Magnitude of a maximum non-reversible platelet aggregation in the control samples (solvent) was adopted as 100%, and that in tested samples was counted as the percentage compared to the control.

[8] = Hypoglycemic activity after glucose load; type: in vivo, mice; details: 100 mg/kg perorally, glucose 1000 mg/kg s.c.
Protocol: Test substance (100 mg/kg) was perorally administrated to fasted mice, and, immediately after that, solution of glucose (1000 mg/kg) was administrated subcutaneously. Glucose content in blood was determined in a hour by the orthotoluidine method. Reducing of glucose level by more than 20% relative to control animals indicated hypoglycemic properties. Glibenclamide (I mg/kg) was utilized as a reference agent.

| SMILES | inhibition at 0.4 µg/mL [1] | % of animals with ulcers ([2]; rats, 4 hours stress, control 100) | % of reducing number of ulcers ([2]; versus control) | % of reducing ulceration index ([2]; versus control) | Number of lesions ([2]; control 8.3 ± 2.5) | ulceration index ([2]; control 10.5 ± 5.7) | percentage of cell protection from infection (C.trachomatis D323) | Number of unchanged cells (C.trachomatis D323; 48 hours, counted in 100 visual fields, cell control 8.000, infected cells 6.000) | IC50, suppressing chemiluminescence by 50% [3] | Point number (behavioral depression) [4] | AlAT ([5]; 20 mg/kg perorally 30 minutes before and 7 hours after CCl4, 24 hours, CCl4 control 0.83 ± 0.21, intact 0.27 ± 0.04) | % of reducing AlAT ([5]; 20 mg/kg perorally, relative to CCl4 control) | Quantity of the unchanged cells (number of cells in 100 visual fields) ([6]; Vero cells, 36 hours, cell control 10000) | percentage of protection of cells from virus ([6]; compared to the control of cell culture) | % of inhibition of platelet aggregation [7] | % change of glucose relative to glucose control [8] | Glucose in blood ([8]; after one hour, glucose control 8.26 ± 0.50) |
| --- | --- | --- | --- | --- | --- | --- | --- | --- | --- | --- | --- | --- | --- | --- | --- | --- | --- |
| CC[C@H](C)C(=O)O[C@H]1C[C@@H](C)C=C2C=C[C@H](C)[C@H](CC[C@@H]3C[C@@H](O)CC(=O)O3)[C@H]21 [Lovastatin, reference compound] | 76.4% | – | – | – | – | – | – | – | – | – | – | – | – | – | – | – | – |
| O=C1NC(=O)N(c2ccc(F)cc2)C(=O)C1=NO [XXVII] | – | 67% | −79% | −88% | 1.7 ± 1.3 | 1.3 ± 1.0 | (65%) | 7.300 | 13.00 µg/mL (≈ 51.8 µM) | 31 | 0.42 ± 0.08 mmol/L/h | −49% | 6500 | (65%) | 24.3 ± 4.8% | −12% | 7.26 ± 0.41 mmol/L |
